Assay results published in patent publication US10822315B2, “5-benzylidene-4-oxazolidinones” (NORTH CAROLINA STATE UNIVERSITY, priority 2016, dated 2020).
In brackets after ≈: the same amount, converted by molar mass. Where two headings read alike, the source gives them in different places.

Tests used:
MRSA Strain 1685 [1] = experiment: Biofilm dispersion assay (crystal violet); assay type: cell-based, Staphylococcus aureus
Method: (§1) General Information. Methicillin-resistant Staphylococcus aureus (MRSA) strains were obtained from the Laboratory of Professor Christian Melander (NCSU) ATCC (33591, BAA 44, BAA 1685, BAA 1770, BAA 43 300) and colonies were grown on solid media as instructed. Mueller-Hinton broth (MHB, 211443-BD), tryptic soy broth (TSB, Remel: R455052) and D-glucose (CAS: 492-62-6) were purchased from Fisher Scientific. Tryptic soy agar (TSA, cat. #22091) and Linezolid (cat. # P70014) were purchased from Sigma-Aldrich. Bacteria for biofilm inhibition and dispersion assays were cultured overnight in TSBG (tryptic soy broth with 0.5% glucose supplement). All assays were run in duplicate and repeated at least two separate times for MIC assays and at least four separate times for biofilm inhibition and dispersion assays. All compounds were dissolved molecular biology grade DMSO as 100 mM stock solutions and further diluted to 10 and 1 mM stock solutions as needed. Optical densities were measured using a Thermo Scientific Genesys 20 spectrophotometer. Data for biofilm inhibition and dispersion assays was collected using a BioTek ELx808 Microplate Reader. All graphs were generated and analyzed using GraphPad Prism 7.
(§2) Biofilm Dispersion Assay. Studies were performed using the standard method described in J. J. Richards, T. E. Ballard and C. Melander, Org Biomol Chem, 2008, 6, 1356-1363. Briefly, dispersion assays were performed by taking an overnight culture of bacterial strain and subculturing it at an OD600 of 0.01 into the necessary growth liquid medium. The resulting bacterial suspension was aliquoted (100 μL) into the wells of a 96-well PVC microtiter plate. Plates were then wrapped in GLAD Press n' Seal followed by an incubation under stationary conditions at an ambient temperature. After 24 hours, the media was discarded from the wells and the plates were washed thoroughly with tap water. Predetermined concentrations of the test compound were then made in the same medium used to initially grow the biofilms and then aliquoted (100 μL) into the wells of the 96-well PVC microtiter plate with the established biofilms. Plates were then wrapped in GLAD Press n'Seal and incubated under stationary conditions at 37° C. After 24 hours, the media was discarded from the wells and the plates were washed thoroughly with tap water. Plates were then stained with 100 μL of 0.1% solution of crystal violet (CV) and then incubated at room temperature for 30 minutes. Plates were then washed with tap water again and the remaining stain was solubilized with 200 μL of 95% ethanol. Biofilm dispersion was quantitated by measuring the OD540 for each well by transferring 125 μL of the solubilized CV stain into a polystyrene microtiter dish for analysis. Biofilm inhibition was quantified by measuring the OD540 of each well and calculated as a percentage of the control (no compound), a negative control lane wherein no biofilm was formed served as a background and was subtracted out.
(§3) Percent dispersion was then plotted against concentration in Prism 7. Each of the four experiments were plotted separately and analyzed by a normalized nonlinear regression. The IC50 values reported represent an arithmetic mean of the four IC50 values. Biofilm data represent four separate experiments, with each experiment performed in duplicate (average of 8 data points for each concentration tested, unless otherwise noted)

MRSA Strain 1770 = experiment: Biofilm dispersion assay (crystal violet); assay type: cell-based, Staphylococcus aureus
Method: as §1, §2, §3

MRSA Strain 43300 [2] = experiment: Biofilm dispersion assay (crystal violet); assay type: cell-based, Staphylococcus aureus; details: for % Biofilm Dispersion (5/40 μM): MRSA strain 43300
Method: as §1, §2, §3

MRSA ATCC BAA-44 [3] = experiment: Broth microdilution MIC determination; assay type: cell-based, Staphylococcus aureus; details: for MIC: Staphylococcus aureus
MRSA ATCC BAA-44 [4] = experiment: Biofilm dispersion assay (crystal violet, pre-formed biofilm); assay type: cell-based, Staphylococcus aureus; details: for % dispersion of pre-formed biofilm: 40 μM; for IC50: MRSA ATCC BAA-44; for % dispersion of pre-formed biofilm at 5 µM: MRSA ATCC BAA 44
Method: as §1, §2, §3

MRSA Strain 1685 [5] = experiment: Biofilm inhibition assay (crystal violet); assay type: cell-based; details: Staphylococcus aureus, read-out: % Biofilm Inhibition (5/40 μM)
Method: as §1
(§4) Biofilm Inhibition Assay. Studies were performed using the standard method described in S. A. Rogers and C. Melander, Angew Chem Int Ed, 2008, 47, 5229-5231. Briefly, biofilm inhibition assays were performed by taking an overnight culture of bacterial strain and subculturing it at an OD600 of 0.01 into the necessary growth liquid medium (LB for A. baumannii, LBNS for P. aeruginosa, Stainer-Scholte medium that was supplemented with 10 μL/mL of 100× nutrient complex for B. bronchiseptica and TSB w/0.3% glucose for S. aureus) for the strain. The compound being tested was then added at a predetermined concentration and then aliquoted (100 μL) into the wells of a 96-well PVC microtiter plate (wells not used for samples are filled with 100 μL of de-ionized water). Plates were then wrapped in GLAD Press n' Seal and incubated under stationary conditions at 37° C. After 24 hours, the media was discarded from the wells and the plates were washed thoroughly with tap water. Plates were then stained with 100 μL of 0.1% solution of crystal violet (CV) and then incubated at an ambient temperature for 30 minutes. Sample plates were then washed with tap water again and the remaining stain was solubilized with 200 μL of 95% ethanol. Biofilm inhibition was quantitated by measuring the OD540 for each well by transferring 125 μL of the solubilized CV stain into a polystyrene microtiter dish for analysis. Biofilm inhibition was quantified by measuring the OD540 of each well and calculated as a percentage of the control (no compound); a negative control lane wherein no biofilm was formed served as a background and was subtracted out.
as §3, with “inhibition” for “dispersion”

MRSA Strain 43300 [6] = experiment: Biofilm inhibition assay (crystal violet); assay type: cell-based; details: Staphylococcus aureus, read-out: % Biofilm Inhibition (5/40 μM)
Method: as §1, §4
as §3, with “inhibition” for “dispersion”

planktonic bacteria = experiment: Growth curve analysis; assay type: cell-based
MRSA ATCC BAA-44 [7] = experiment: Biofilm dispersion assay (crystal violet, pre-formed biofilm); assay type: cell-based; details: Staphylococcus aureus, Table 2
[8] = MRSA ATCC BAA 44, Table 2, read-out: MIC
[9] = MRSA ATCC BAA-44, Table 1, read-out: Antimicrobial Activity MIC

How did the “% Biofilm Dispersion (5/40 μM)” value (MRSA Strain 1685 [1]; 5 μM) turn out when `CCCCC(Cl)(Cl)C1NC(=O)/C(=C/c2ccc(C(F)(F)F)cc2)O1` (stereo not shown) [Compound 1, (Z)-2-(1,1-dichloropentyl)-5-(4-(trifluoromethyl)benzylidene)oxazolidin-4-one] was run?
Its value is 24%.

And the “% Biofilm Dispersion (5/40 μM)” value (MRSA Strain 1685 [1]; 40 μM)?
Its value is 61%.

What about the “% Biofilm Dispersion (5/40 μM)” value (MRSA Strain 1770; 5 μM) of the same compound?
Its value is 52%.

And the “% Biofilm Dispersion (5/40 μM)” value (MRSA Strain 1770; 40 μM)?
Its value is 46%.

And the “% Biofilm Dispersion (5/40 μM)” value (MRSA Strain 43300 [2]; 5 μM)?
The value was 23%.

What about the “% Biofilm Dispersion (5/40 μM)” value (MRSA Strain 43300 [2]; 40 μM) of the same compound?
Its value is 63%.

And the MIC (MRSA ATCC BAA-44 [3]; MRSA ATCC BAA-44, read-out: MIC)?
The MIC was 12000 µg/mL (≈ 31400 µM).

And the MIC (MRSA ATCC BAA-44 [3]; [8])?
Its MIC is 12 µg/mL (≈ 31.4 µM).

What about the MIC (MRSA ATCC BAA-44 [3]; [9]) of the same compound?
The MIC was 12 µg/mL (≈ 31.4 µM).

And the “% dispersion of pre-formed biofilm” value (MRSA ATCC BAA-44 [4])?
The value was 87%.

What about the IC50 (MRSA ATCC BAA-44 [4]) of the same compound?
The IC50 was 5.7 µM.

And the % dispersion of pre-formed biofilm at 5 µM (MRSA ATCC BAA-44 [4]; Staphylococcus aureus)?
The % dispersion of pre-formed biofilm at 5 µM was 59%.

What about the IC50 (MRSA ATCC BAA-44 [4]; Staphylococcus aureus) of the same compound?
The IC50 was 4.7 µM.

What about the inhibition at 5 µM (MRSA Strain 1685 [5]) of the same compound?
The inhibition at 5 µM was 45%.

And the inhibition at 40 µM (MRSA Strain 1685 [5])?
Its inhibition at 40 µM is 66%.

And the inhibition at 5 µM (MRSA Strain 43300 [6])?
The inhibition at 5 µM was 59%.

And the inhibition at 40 µM (MRSA Strain 43300 [6])?
The inhibition at 40 µM was 54%.

What about the “growth curve versus untreated control (in words)” value (planktonic bacteria; 1 μM) of the same compound?
Its value is “substantial inhibition of growth in the first 8 hours”.

And the “growth curve versus untreated control (in words)” value (planktonic bacteria; 5 μM)?
The value was “substantial inhibition of growth in the first 8 hours”.

And the inhibition at 40 µM (MRSA ATCC BAA-44 [7])?
Its inhibition at 40 µM is 87%.

What does the source list for `O=C1NC(C(Cl)(Cl)Cc2ccccc2)O/C1=C\c1ccc(C(F)(F)F)cc1` (stereo not shown) [Compound 2, (Z)-2-(1,1-dichloro-2-phenylethyl)-5-(4-(trifluoromethyl)benzylidene)oxazolidin-4-one]?
% Biofilm Dispersion (5/40 μM) (MRSA Strain 1685 [1]; 5 μM): 15/− %; % Biofilm Dispersion (5/40 μM) (MRSA Strain 1770; 5 μM): 29/− %; % Biofilm Dispersion (5/40 μM) (MRSA Strain 43300 [2]; 5 μM): 37/− %; biofilm dispersion activity (in words) (MRSA Strain 43300 [2]; MRSA strain 43 300): no dose-dependent dispersion activity; MIC (MRSA ATCC BAA-44 [3]; [8]): 6 µg/mL (≈ 14.4 µM); MIC (MRSA ATCC BAA-44 [3]; [9]): 6 µg/mL (≈ 14.4 µM); fold enhancement of the MIC (MRSA ATCC BAA-44 [3]; benzyl side chain (2) versus n-butyl side chain (1)): 2 fold; % dispersion of pre-formed biofilm (MRSA ATCC BAA-44 [4]): 69%; % dispersion of pre-formed biofilm at 5 µM (MRSA ATCC BAA-44 [4]; Staphylococcus aureus): 57%; IC50 (MRSA ATCC BAA-44 [4]; Staphylococcus aureus): 4.3 µM; inhibition at 5 µM (MRSA Strain 1685 [5]): 19%; inhibition at 40 µM (MRSA Strain 1685 [5]): 17%; inhibition at 5 µM (MRSA Strain 43300 [6]): 41%; inhibition at 40 µM (MRSA Strain 43300 [6]): 63%; growth curve versus untreated control (in words) (planktonic bacteria; 1 μM): modest deviation from the untreated control; growth curve versus untreated control (in words) (planktonic bacteria; 5 μM): moderate growth inhibition in the first 8 hours; inhibition at 40 µM (MRSA ATCC BAA-44 [7]): 69%
